The source of these data is patent publication US6696481B2, “Salt of perindopril and pharmaceutical compositions containing it” (Les Laboratoires Servier, priority 2003, dated 2004).

Series [1] in a line: Long-term stability study of immediate-release tablets, perindopril assayed by inverse-phase HPLC. Conditions: for Percentage remaining (%): 6 months; for degradation rate: after 6 months. The series is classed as physicochemical. The protocol: Long-term stability studies carried out under very precise temperature and humidity conditions have yielded the results indicated in the Table hereinbelow.
In that study, perindopril was assayed by inverse-phase high-pressure liquid chromatography using, as eluant, an aqueous phase (comprising sodium heptane-sulphonate, and the pH of which is 2) and acetonitrile (67/33). Detection of the product was carried out by UV (215 nm).
The study was carried out using immediate-release tablets containing either 2.4 mg of the arginine salt of perindopril or 2.0 mg of the tert-butylamine salt of perindopril (each of the two tablets containing 1.7 mg of perindopril). The tablets were assayed 6 months after the start of storage of the tablets at different temperatures and different relative humidities (% R.H.).
The arginine salt used in this study is the L-arginine salt. It has been prepared according to a classical method of salification of organic chemistry.

Series [2] is described as follows: Shelf-life of tablets / pharmaceutical compositions. The series is classed as physicochemical. From the text: However, in view of the intrinsic fragility of perindopril, the tert-butylamine salt has not been capable of providing a complete solution to the problems of the product's stability to heat and humidity. Indeed, for marketing, tablets of perindopril tert-butylamine salt must, in certain countries, be protected with additional packaging measures. Moreover, even for temperate-climate countries, that instability has made it impossible to obtain a shelf-life of more than 2 years for the tablets. Finally, for marketing of the tablets, they have to be marked “to be stored at a temperature less than or equal to 30 degrees”.

As for `CC(C)(C)N.CCC[C@H](N[C@@H](C)C(=O)N1[C@H](C(=O)O)C[C@@H]2CCCC[C@@H]21)C(=O)OCC` [tert-Butylamine salt of perindopril], the “Percentage remaining (%)” value in series [1] (25° C., 60% R.H.) was 101.0%; in series [1] (30° C., 60% R.H.), 94.4%; in series [1] (40° C., 75% R.H.), 67.2%. Further, the degradation rate result in series [1] is “approximately 33%”. The molecule further had a shelf-life in series [2] (tablets, temperate-climate countries) of at most 2 years.
Turning to `CCC[C@H](N[C@@H](C)C(=O)N1[C@H](C(=O)O)C[C@@H]2CCCC[C@@H]21)C(=O)OCC.N=C(N)NCCC[C@H](N)C(=O)O` [Arginine salt of perindopril], the “Percentage remaining (%)” value in series [1] (25° C., 60% R.H.) was found to be 99.5%; in series [1] (30° C., 60% R.H.), 98.1%; in series [1] (40° C., 75% R.H.), 98.6%. The degradation rate result in series [1] is recorded as “practically no degradation”. The shelf-life result in series [2] (pharmaceutical compositions, considered from the 6-month results) is “at least three years”.
